pIC50, pKd: −log10 of the molar value. Calls of active or inactive are those of the source. The calls are words filed in the database; no cut-off is given here.
Columns and labels:
[1] = Inhibition of Influenza A virus A/WSN/33(H1N1) Ribonucleoprotein transfected in Vero cells incubated for 48 hrs by spectrophotometer analysis; format: cell-based
[2] = Selectivity index, ratio of CC50 for cytotoxicity against African green monkey Vero cells assessed as reduction in cell viability to IC50 for inhibition of Influenza A virus A/WSN/33(H1N1) Ribonucleoprotein transfected in Vero cells; format: toxicity, cell-based; conditions: read-out: Ratio CC50/IC50
[3] = tested on: Influenza A virus; assay: Antiviral activity against Influenza A virus B/Florida/4/06 infected in MDCK cells MOI 0.01 assessed as inhibition of viral growth pre-infected for 1 hr followed by compound addition and measured 24 hrs post infection by plaque assay; format: functional, organism-based; conditions: B/Florida/4/06, MDCK
[4] = tested on: Influenza A virus; assay: Antiviral activity against Influenza A virus A/WSN/33(H1N1) infected in chicken erythrocytes assessed as reduction in Haemagglutinin level preincubated for 30 mins followed by viral infection and measured after 40 mins; format: functional, organism-based; conditions: Erythrocyte, time 70.0 min
[5] = Cytotoxicity against African green monkey Vero cells assessed as reduction in cell viability incubated for 48 hrs by MTT assay; format: toxicity, cell-based; conditions: chlorocebus sabaeus
[6] = molecular target: Polymerase acidic protein (Influenza A virus (A/Puerto Rico/8/1934(H1N1)), UniProt P03433); assay: Binding affinity to C-terminal Influenza A virus Polymerase acidic protein assessed as dissociation constant by MST assay
[7] = Cytotoxicity against MDCK cells assessed as reduction in cell viability incubated for 48 hrs by MTT assay; format: toxicity, cell-based, Canis lupus familiaris; conditions: dog
[8] = tested on: Influenza A virus; assay: Antiviral activity against Influenza A virus A/WSN/33(H1N1) infected in MDCK cells MOI 0.1 assessed as reduction in viral titre at 12.5 uM pre-infected with cells for 6 hrs followed by compound addition and measured after 2 hrs post infection by time of addition assay; format: functional, organism-based
[9] = tested on: Influenza A virus; assay: Antiviral activity against Influenza A virus A/WSN/33(H1N1) infected in MDCK cells MOI 0.1 assessed as reduction in viral titre at 12.5 uM pre-infected with cells for 6 hrs followed by compound addition and measured after 6 to 8 hrs post infection by time of addition assay; format: functional, organism-based
[10] = Selectivity index, ratio of CC50 for cytotoxicity against MDCK cells assessed as reduction in cell viability to IC50 for antiviral activity against Influenza A virus A/HK/1/68 infected in MDCK cells MOI 0.01 assessed as inhibition of viral growth; format: toxicity, cell-based; conditions: dog, read-out: Ratio CC50/IC50
[11] = tested on: Influenza A virus; assay: Antiviral activity against Influenza A virus A/WSN/33(H1N1) infected in MDCK cells assessed as reduction in virus-induced cytopathic effect at 12.5 uM pre-infected with cells for 1 hrs followed by compound addition and measured after 2 days by MTT assay; format: functional, organism-based; conditions: time 2.0 day
[12] = tested on: Influenza A virus; assay: Antiviral activity against Influenza A virus A/WSN/33(H1N1) infected in chicken erythrocytes assessed as reduction in neuraminidase level incubated for 2 hrs; format: functional, organism-based; conditions: Erythrocyte
[13] = tested on: Influenza A virus; assay: Antiviral activity against Influenza A virus A/WSN/33(H1N1) infected in MDCK cells MOI 0.1 assessed as reduction in viral titre at 12.5 uM pre-infected with cells for 6 hrs followed by compound addition and measured after 4 to 6 hrs post infection by time of addition assay; format: functional; design: scale not given: the % may be the effect or the level left
[14] = tested on: Influenza A virus; assay: Antiviral activity against Influenza A virus A/HK/1/68 infected in MDCK cells MOI 0.01 assessed as inhibition of viral growth pre-infected for 1 hr followed by compound addition and measured 24 hrs post infection by plaque assay; format: functional, organism-based; conditions: A/HK/1/68, MDCK
[15] = molecular target: Nucleoprotein (Influenza A virus (strain A/Wilson-Smith/1933 H1N1), UniProt P15682); assay: Binding affinity to Influenza A virus Nucleoprotein assessed as dissociation constant by MST assay
Chain of Nucleoprotein (P15682 whole entry): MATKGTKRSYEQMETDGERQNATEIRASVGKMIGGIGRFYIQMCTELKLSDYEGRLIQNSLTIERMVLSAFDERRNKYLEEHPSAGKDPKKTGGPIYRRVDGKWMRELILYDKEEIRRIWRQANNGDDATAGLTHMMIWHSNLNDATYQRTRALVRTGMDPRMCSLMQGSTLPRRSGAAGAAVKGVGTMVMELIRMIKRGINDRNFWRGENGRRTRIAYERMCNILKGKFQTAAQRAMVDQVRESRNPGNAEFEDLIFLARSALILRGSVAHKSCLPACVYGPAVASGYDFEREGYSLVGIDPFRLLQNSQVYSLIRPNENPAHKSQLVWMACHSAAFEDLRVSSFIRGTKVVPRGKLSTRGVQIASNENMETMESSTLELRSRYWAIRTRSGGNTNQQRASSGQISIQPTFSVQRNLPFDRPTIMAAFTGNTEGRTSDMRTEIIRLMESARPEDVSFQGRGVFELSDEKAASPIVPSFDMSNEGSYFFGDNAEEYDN

[16] = tested on: Influenza A virus; assay: Antiviral activity against Influenza A virus A/WSN/33(H1N1) infected in MDCK cells MOI 0.1 assessed as reduction in viral titre at 12 uM pre-infected with cells for 6 hrs followed by compound addition and measured after 2 to 4 hrs post infection by time of addition assay; format: functional, organism-based
[17] = tested on: Influenza A virus; assay: Antiviral activity against Influenza A virus A/WSN/33(H1N1) infected in MDCK cells MOI 0.1 assessed as inhibition of viral growth at 12.5 uM pre-infected with cells for 6 hrs followed by compound addition and measured after 2 to 4 hrs post infection by time of addition assay; format: functional, organism-based
[18] = tested on: Influenza A virus; assay: Antiviral activity against Influenza A virus A/WSN/33(H1N1) infected in MDCK cells assessed as inhibition of viral growth pre-infected for 1 hr followed by compound addition and measured 24 hrs post infection by plaque assay; format: functional, organism-based
[19] = Selectivity index, ratio of CC50 for cytotoxicity against MDCK cells assessed as reduction in cell viability to IC50 for antiviral activity against Influenza A virus A/PR/8/34 infected in MDCK cells MOI 0.01 assessed as inhibition of viral growth; format: toxicity, cell-based; conditions: dog, read-out: Ratio CC50/IC50
[20] = tested on: Influenza A virus; assay: Antiviral activity against Influenza A virus A/PR/8/34 infected in MDCK cells MOI 0.01 assessed as inhibition of viral growth pre-infected for 1 hr followed by compound addition and measured 24 hrs post infection by plaque assay; format: functional, organism-based; conditions: A/PR/8/34, MDCK
[21] = Selectivity index, ratio of CC50 for cytotoxicity against MDCK cells assessed as reduction in cell viability to IC50 for antiviral activity against Influenza A virus B/Florida/4/06 infected in MDCK cells MOI 0.01 assessed as inhibition of viral growth; format: toxicity, cell-based; conditions: dog, read-out: Ratio CC50/IC50
[22] = Selectivity index, ratio of CC50 for cytotoxicity against MDCK cells assessed as reduction in cell viability to IC50 for antiviral activity against Influenza A virus A/WSN/33(H1N1) infected in MDCK cells assessed as inhibition of viral growth; format: toxicity, cell-based; conditions: dog, read-out: Ratio CC50/IC50

## O=C(NCCCN1CCOCC1)c1ccccc1Nc1ccnc2ccc(Cl)cc12
[1]
  pIC50: 4.93
[2]
  selectivity ratio: > 3
[3]
  pIC50: 5.48
[4]
  Activity: inactive
[5]
  CC50 at 48 h: 31.4 µM
[6]
  pKd: 4.54
[7]
  CC50 at 48 h: > 50 µM
[8]
  Activity: Active
[9]
  Activity: inactive
[10]
  selectivity ratio: > 15
[11]
  Activity: Active
[12]
  Activity: inactive
[13]
  Activity: 5%
[14]
  pIC50: 5.48
[15]
  pKd: 4.48
[16]
  Activity: Active
[17]
  inhibition: Active
[18]
  pIC50: 5.49
[19]
  selectivity ratio: > 13
[20]
  pIC50: 5.40
[21]
  selectivity ratio: > 15
[22]
  selectivity ratio: > 16
